# Reference: patent publication US20240108738A1, “BICYCLIC PEPTIDE LIGANDS SPECIFIC FOR NK CELLS” (Bicycle Tx Limited, priority 2021, published 2024)
# Numbered stars: 1 amine (or outer) side, 2 acyl side, 3 side chain; on linkers, the order of the positions; unused ones are H or OH. Bridge positions count the residues as written; N and C are the ends. Square brackets hold non-standard residues; d marks the D form. Peptide text beside a SMILES is read from it. TATA = O=C(CC[*:1])N1CN(C(=O)CC[*:2])CN(C(=O)CC[*:3])C1; dCha = N[C@H](CC1CCCCC1)C(=O)O; Cba = N[C@@H](CC1CCC1)C(=O)O; dNle = CCCC[C@@H](N)C(=O)O; dNva = CCC[C@@H](N)C(=O)O
# Molecular target: T1, Fc-tagged human NKp46 (Homo sapiens, UniProt O76036)
# T1 construct: purchased ACROBiosystems NC1-H5257
# T1 sequence (O76036 22-304): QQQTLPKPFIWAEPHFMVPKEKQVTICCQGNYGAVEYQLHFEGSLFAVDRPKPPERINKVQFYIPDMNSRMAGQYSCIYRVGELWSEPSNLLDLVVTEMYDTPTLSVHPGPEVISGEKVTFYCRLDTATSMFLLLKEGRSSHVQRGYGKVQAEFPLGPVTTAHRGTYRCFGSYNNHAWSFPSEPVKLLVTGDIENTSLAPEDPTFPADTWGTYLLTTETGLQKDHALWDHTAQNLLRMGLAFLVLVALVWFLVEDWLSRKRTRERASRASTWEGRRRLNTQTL
# Assay: NKp46 SPR assay (Method 1 and/or Method 2)
# Assay type: binding
# Conditions: SPR Method 1 and/or Method 2, Table 3B
# Procedure: SPR experiments were performed to determine ka (M^−1s^−1), kd (s^−1), KD (nM) values (where measurable) of various bicyclic peptides to immobilised NKp46.
# For analysis of peptide binding to NKp46, a Biacore 3000 instrument was used with a Cytiva Streptavidin chip. Capture of the protein (recombinant human NKp46-Fc fusion biotinylated via Avi-tag) was carried out at 25° C. with HBS-N (10 mM HEPES, 0.15 M NaCl, pH 7.4) as the running buffer and biotinylated NKp46 was captured to a level of 400-800 RU using a dilution of protein to 0.2 μM in buffer. Buffer was then changed to PBS/0.05% Tween 20 and a dilution series of the peptides was prepared in this buffer with a final DMSO concentration of 0.5% with a top peptide concentration of 100 nM-5000 nM and 6 further 2 or 3-fold dilutions. The SPR analysis was run at 25° C. and a flow rate of 50 μl/min with 60 seconds association and 200-400 seconds dissociation time. Data were corrected for DMSO excluded volume effects. All data were double-referenced for blank injections and reference surface using standard processing procedures and data processing and kinetic fitting were performed using Scrubber software, version 2.0c (BioLogic Software). Data were fitted using simple 1:1 binding model allowing for mass transport effects where appropriate.
# Peptides were tested against Fc-tagged human NKp46 (ACROBiosystems, cat no. NC1-H5257).
# For analysis of peptide binding, a Biacore 8k+ instrument was used with a CM5 chip (Cytiva). All experiments were carried out at 25° C. Anti-human IgG (Fc) antibody (Cytiva) was immobilized on all flow cells by standard amine coupling chemistry. The running buffer was HBS-N(Cytiva, 10 mM HEPES, 0.15 M NaCl, pH 7.4) and the flow rate was 10 μL/min. The carboxymethyl dextran surface was activated with a 1:1 ratio of 0.4 M 1-ethyl-3-(3-dimethylaminopropyl) carbodiimide hydrochloride (EDC)/0.1 M N-hydroxy succinimide (NHS) (Cytiva) for 420s. […] Residual activated groups were blocked with a 420 s injection of 1 M ethanolamine (pH 8.5). The final surface density was 3000-5000 RU. Fc-tagged human NKp46 was diluted to 0.1 μM in HBS-N and was captured on flow cell 2 only of the sensor chip at a flow rate of 10 μL/min to 500-1000 RU. The buffer was then changed to PBS-P+(Cytiva) supplemented with 2% DMSO. […] The flow rate was 50 μL/min with 60 s association and 400 s dissociation. Data were corrected for DMSO volume exclusion effects. All data were double-referenced against blank injections and reference surface response using standard processing procedures. Data processing and kinetic fitting was performed using Biacore Insight Evaluation Software with Extended Screening and Characterization Extension (Cytiva). Data were fitted using steady state affinity 1:1 binding model to determine KD. Data were fitted using kinetic 1:1 binding model to determine kinetic constants where appropriate.
row,Structure (SMILES),Kd
1,"CSCC[C@@H]1NC(=O)[C@@H]2CSCCC(=O)N3CN(CN(C3)C(=O)CCSC[C@H](N)C(=O)N[C@@H](CC(N)=O)C(=O)N[C@@H](CC(C)C)C(=O)N[C@@H](CCC(N)=O)C(=O)N[C@@H](C)C(=O)N3CCC[C@H]3C(=O)N2)C(=O)CCSC[C@@H](C(N)=O)NC(=O)[C@H](C(C)C)NC(=O)[C@H](CCCCN)NC(=O)CNC(=O)[C@H]([C@@H](C)O)NC(=O)[C@H](CC(C)C)NC1=O [BCY18295, (SEQ ID NO: 4)] (H-CNLQAPCMLTGKVC-NH2; linker 1-7-14 via TATA; C-terminus assumed)",6410 nM
2,"CSCC[C@@H]1NC(=O)[C@@H]2CSCCC(=O)N3CN(CN(C3)C(=O)CCSC[C@@H](C(=O)N[C@@H](C)C(N)=O)NC(=O)[C@H](C(C)C)NC(=O)[C@H](CCCCN)NC(=O)CNC(=O)[C@H]([C@@H](C)O)NC(=O)[C@H](CC(C)C)NC1=O)C(=O)CCSC[C@H](NC(=O)[C@H](C)N)C(=O)N[C@@H](CC(N)=O)C(=O)N[C@@H](CC(C)C)C(=O)N[C@@H](CCC(N)=O)C(=O)N[C@@H](C)C(=O)N[C@@H](C)C(=O)N2 [BCY18299, A-(SEQ ID NO: 64)-A] (H-ACNLQAACMLTGKVCA-NH2; linker 2-8-15 via TATA; N-terminus assumed)",1800 nM
3,"CSCC[C@@H]1NC(=O)[C@@H]2CSCCC(=O)N3CN(CN(C3)C(=O)CCSC[C@@H](C(=O)N[C@@H](C)C(N)=O)NC(=O)[C@H](C(C)C)NC(=O)[C@H](CCCCN)NC(=O)CNC(=O)[C@H]([C@@H](C)O)NC(=O)[C@H](C)NC1=O)C(=O)CCSC[C@H](NC(=O)[C@H](C)N)C(=O)N[C@@H](CC(N)=O)C(=O)N[C@@H](CC(C)C)C(=O)N[C@@H](CCC(N)=O)C(=O)N[C@@H](C)C(=O)N1CCC[C@H]1C(=O)N2 [BCY18301, A-(SEQ ID NO: 65)-A] (H-ACNLQAPCMATGKVCA-NH2; linker 2-8-15 via TATA; C-terminus assumed)",4030 nM
4,"CSCC[C@@H]1NC(=O)[C@@H]2CSCCC(=O)N3CN(CN(C3)C(=O)CCSC[C@@H](C(=O)N[C@@H](C)C(N)=O)NC(=O)[C@H](C(C)C)NC(=O)[C@H](CCCCN)NC(=O)CNC(=O)[C@H](C)NC(=O)[C@H](CC(C)C)NC1=O)C(=O)CCSC[C@H](NC(=O)[C@H](C)N)C(=O)N[C@@H](CC(N)=O)C(=O)N[C@@H](CC(C)C)C(=O)N[C@@H](CCC(N)=O)C(=O)N[C@@H](C)C(=O)N1CCC[C@H]1C(=O)N2 [BCY18302, A-(SEQ ID NO: 66)-A] (H-ACNLQAPCMLAGKVCA-NH2; linker 2-8-15 via TATA; N-terminus assumed)",5380 nM
5,"CSCC[C@@H]1NC(=O)[C@@H]2CSCCC(=O)N3CN(CN(C3)C(=O)CCSC[C@@H](C(=O)N[C@@H](C)C(N)=O)NC(=O)[C@H](C(C)C)NC(=O)[C@H](CCCCN)NC(=O)[C@H](C)NC(=O)[C@H]([C@@H](C)O)NC(=O)[C@H](CC(C)C)NC1=O)C(=O)CCSC[C@H](NC(=O)[C@H](C)N)C(=O)N[C@@H](CC(N)=O)C(=O)N[C@@H](CC(C)C)C(=O)N[C@@H](CCC(N)=O)C(=O)N[C@@H](C)C(=O)N1CCC[C@H]1C(=O)N2 [BCY18303, A-(SEQ ID NO: 67)-A] (H-ACNLQAPCMLTAKVCA-NH2; linker 2-8-15 via TATA)",2750 nM
6,"CSCC[C@@H]1NC(=O)[C@@H]2CSCCC(=O)N3CN(CN(C3)C(=O)CCSC[C@@H](C(=O)N[C@@H](C)C(N)=O)NC(=O)[C@H](C(C)C)NC(=O)[C@H](C)NC(=O)CNC(=O)[C@H]([C@@H](C)O)NC(=O)[C@H](CC(C)C)NC1=O)C(=O)CCSC[C@H](NC(=O)[C@H](C)N)C(=O)N[C@@H](CC(N)=O)C(=O)N[C@@H](CC(C)C)C(=O)N[C@@H](CCC(N)=O)C(=O)N[C@@H](C)C(=O)N1CCC[C@H]1C(=O)N2 [BCY18304, A-(SEQ ID NO: 68)-A] (H-ACNLQAPCMLTGAVCA-NH2; linker 2-8-15 via TATA; N-terminus assumed)",1530 nM
7,"CC(C)C[C@@H]1NC(=O)[C@H](CC(N)=O)NC(=O)[C@@H](NC(=O)[C@H](C)N)CSCCC(=O)N2CN3CN(C2)C(=O)CCSC[C@H](NC(=O)[C@@H]2CCCN2C(=O)[C@H](C)NC(=O)[C@H](CCC(N)=O)NC1=O)C(=O)N[C@@H](CC(C)C)C(=O)N[C@@H](CC(C)C)C(=O)N[C@@H]([C@@H](C)O)C(=O)NCC(=O)N[C@@H](CCCCN)C(=O)N[C@@H](C(C)C)C(=O)N[C@H](C(=O)N[C@@H](C)C(N)=O)CSCCC3=O [BCY18313, A-(SEQ ID NO: 75)-A] (H-ACNLQAPCLLTGKVCA-NH2; linker 2-8-15 via TATA; N-terminus assumed)",2750 nM
8,"CSCC[C@@H]1NC(=O)[C@@H]2CSCCC(=O)N3CN(CN(C3)C(=O)CCSC[C@@H](C(=O)N[C@@H](C)C(N)=O)NC(=O)[C@H](C(C)C)NC(=O)[C@H](CCCCN)NC(=O)CNC(=O)[C@H]([C@@H](C)O)NC(=O)[C@H](CCC(=O)O)NC1=O)C(=O)CCSC[C@H](NC(=O)[C@H](C)N)C(=O)N[C@@H](CC(N)=O)C(=O)N[C@@H](CC(C)C)C(=O)N[C@@H](CCC(N)=O)C(=O)N[C@@H](C)C(=O)N1CCC[C@H]1C(=O)N2 [BCY18316, A-(SEQ ID NO: 78)-A] (H-ACNLQAPCMETGKVCA-NH2; linker 2-8-15 via TATA; C-terminus assumed)",1510 nM
9,"CSCC[C@@H]1NC(=O)[C@@H]2CSCCC(=O)N3CN(CN(C3)C(=O)CCSC[C@@H](C(=O)N[C@@H](C)C(N)=O)NC(=O)[C@H](C(C)C)NC(=O)[C@H](CCCCN)NC(=O)CNC(=O)[C@H]([C@@H](C)O)NC(=O)[C@H](Cc3ccc(O)cc3)NC1=O)C(=O)CCSC[C@H](NC(=O)[C@H](C)N)C(=O)N[C@@H](CC(N)=O)C(=O)N[C@@H](CC(C)C)C(=O)N[C@@H](CCC(N)=O)C(=O)N[C@@H](C)C(=O)N1CCC[C@H]1C(=O)N2 [BCY18318, A-(SEQ ID NO: 80)-A] (H-ACNLQAPCMYTGKVCA-NH2; linker 2-8-15 via TATA)",1920 nM
10,"CC(=O)N[C@H]1CSCCC(=O)N2CN3CN(C2)C(=O)CCSC[C@H](NC(=O)[C@H](CC(C)C)NC(=O)[C@H](Cc2ccc(O)cc2)NC(=O)[C@H](CC(=O)O)NC(=O)[C@@H]2CCCN2C(=O)[C@H](CC2CCC2)NC(=O)[C@H](CCO)NC1=O)C(=O)N[C@H](C)C(=O)N[C@@H](CC(=O)O)C(=O)N[C@@H](CCC(=O)O)C(=O)N[C@@H](Cc1ccc(O)cc1)C(=O)N[C@H](C(N)=O)CSCCC3=O [BCY18434, Ac-(SEQ ID NO: 137)]",44 nM
11,"CCC[C@H]1NC(=O)[C@@H]2CSCCC(=O)N3CN(CN(C3)C(=O)CCSC[C@H](NC(C)=O)C(=O)N[C@@H](Cc3ccc(O)cc3)C(=O)N[C@@H](CC3CCC3)C(=O)N3CCC[C@H]3C(=O)N[C@@H](CC(=O)O)C(=O)N[C@@H](Cc3ccc(O)cc3)C(=O)N[C@@H](CC(C)C)C(=O)N2)C(=O)CCSC[C@@H](C(N)=O)NC(=O)[C@H](Cc2ccc(O)cc2)NC(=O)[C@H](CCC(=O)O)NC(=O)[C@H](CC(=O)O)NC1=O [BCY18444, Ac-(SEQ ID NO: 145)] (Ac-CY[Cba]PDYLC[dNva]DEYC-NH2; linker 1-8-13 via TATA)",3.9 nM
12,"CC(=O)N[C@H]1CSCCC(=O)N2CN3CN(C2)C(=O)CCSC[C@H](NC(=O)[C@H](CC(C)C)NC(=O)[C@H](Cc2ccc(O)cc2)NC(=O)[C@H](CC(=O)O)NC(=O)[C@@H]2CCCN2C(=O)[C@H](CC2CCC2)NC(=O)[C@H](Cc2ccc(O)cc2)NC1=O)C(=O)N[C@H](CC1CCCCC1)C(=O)N[C@@H](CC(=O)O)C(=O)N[C@@H](CCC(=O)O)C(=O)N[C@@H](Cc1ccc(O)cc1)C(=O)N[C@H](C(N)=O)CSCCC3=O [BCY19683, Ac-(SEQ ID NO: 147)] (Ac-CY[Cba]PDYLC[dCha]DEYC-NH2; linker 1-8-13 via TATA; C-terminus assumed)",10 nM
13,"CCCC[C@H]1NC(=O)[C@@H]2CSCCC(=O)N3CN(CN(C3)C(=O)CCSC[C@H](NC(C)=O)C(=O)N[C@@H](Cc3ccc(O)cc3)C(=O)N[C@@H](CC3CCC3)C(=O)N3CCC[C@H]3C(=O)N[C@@H](CC(=O)O)C(=O)N[C@@H](Cc3ccc(O)cc3)C(=O)N[C@@H](CC(C)C)C(=O)N2)C(=O)CCSC[C@@H](C(N)=O)NC(=O)[C@H](Cc2ccc(O)cc2)NC(=O)[C@H](CCC(=O)O)NC(=O)[C@H](CC(=O)O)NC1=O [BCY19685, Ac-(SEQ ID NO: 149)] (Ac-CY[Cba]PDYLC[dNle]DEYC-NH2; linker 1-8-13 via TATA)",10 nM
